Data as given in ChEMBL document CHEMBL1671827, “Discovery of MK-5046, a Potent, Selective Bombesin Receptor Subtype-3 Agonist for the Treatment of Obesity” (ACS Med Chem Lett, 2011).
Calls of active or inactive are those of the source. No cut-off for these calls is given here.

Key:
[1] = Plasma clearance in rat at 1 mg/kg, iv; type: ADME, organism-based; design: dose 1 mg/kg, route intravenous
[2] = Fraction unbound in rat plasma at 1 uM; type: ADME, cell-free
[3] = target: T1, Bombesin receptor subtype-3 (Homo sapiens, UniProt P32247); assay: Agonist activity at human BRS-3 expressed in HEK293AEQ cells assessed as induction of intracellular calcium mobilization by aequorin bioluminescence assay; type: functional, cell-based
T1 sequence (P32247 whole entry): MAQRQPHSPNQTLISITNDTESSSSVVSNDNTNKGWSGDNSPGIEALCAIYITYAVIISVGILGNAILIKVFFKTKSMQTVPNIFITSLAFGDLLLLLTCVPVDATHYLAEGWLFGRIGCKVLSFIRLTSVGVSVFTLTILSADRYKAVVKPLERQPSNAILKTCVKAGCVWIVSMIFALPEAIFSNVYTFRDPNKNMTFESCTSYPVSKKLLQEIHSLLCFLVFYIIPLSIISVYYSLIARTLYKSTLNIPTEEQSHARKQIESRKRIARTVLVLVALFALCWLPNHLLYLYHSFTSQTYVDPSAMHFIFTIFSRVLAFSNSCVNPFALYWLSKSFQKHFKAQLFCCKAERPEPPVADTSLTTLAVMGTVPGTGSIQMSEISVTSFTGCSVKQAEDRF

[4] = target: Voltage-gated inwardly rectifying potassium channel KCNH2 (Homo sapiens, UniProt Q12809); assay: Binding affinity to human ERG
Voltage-gated inwardly rectifying potassium channel KCNH2, sequence (Q12809 whole entry): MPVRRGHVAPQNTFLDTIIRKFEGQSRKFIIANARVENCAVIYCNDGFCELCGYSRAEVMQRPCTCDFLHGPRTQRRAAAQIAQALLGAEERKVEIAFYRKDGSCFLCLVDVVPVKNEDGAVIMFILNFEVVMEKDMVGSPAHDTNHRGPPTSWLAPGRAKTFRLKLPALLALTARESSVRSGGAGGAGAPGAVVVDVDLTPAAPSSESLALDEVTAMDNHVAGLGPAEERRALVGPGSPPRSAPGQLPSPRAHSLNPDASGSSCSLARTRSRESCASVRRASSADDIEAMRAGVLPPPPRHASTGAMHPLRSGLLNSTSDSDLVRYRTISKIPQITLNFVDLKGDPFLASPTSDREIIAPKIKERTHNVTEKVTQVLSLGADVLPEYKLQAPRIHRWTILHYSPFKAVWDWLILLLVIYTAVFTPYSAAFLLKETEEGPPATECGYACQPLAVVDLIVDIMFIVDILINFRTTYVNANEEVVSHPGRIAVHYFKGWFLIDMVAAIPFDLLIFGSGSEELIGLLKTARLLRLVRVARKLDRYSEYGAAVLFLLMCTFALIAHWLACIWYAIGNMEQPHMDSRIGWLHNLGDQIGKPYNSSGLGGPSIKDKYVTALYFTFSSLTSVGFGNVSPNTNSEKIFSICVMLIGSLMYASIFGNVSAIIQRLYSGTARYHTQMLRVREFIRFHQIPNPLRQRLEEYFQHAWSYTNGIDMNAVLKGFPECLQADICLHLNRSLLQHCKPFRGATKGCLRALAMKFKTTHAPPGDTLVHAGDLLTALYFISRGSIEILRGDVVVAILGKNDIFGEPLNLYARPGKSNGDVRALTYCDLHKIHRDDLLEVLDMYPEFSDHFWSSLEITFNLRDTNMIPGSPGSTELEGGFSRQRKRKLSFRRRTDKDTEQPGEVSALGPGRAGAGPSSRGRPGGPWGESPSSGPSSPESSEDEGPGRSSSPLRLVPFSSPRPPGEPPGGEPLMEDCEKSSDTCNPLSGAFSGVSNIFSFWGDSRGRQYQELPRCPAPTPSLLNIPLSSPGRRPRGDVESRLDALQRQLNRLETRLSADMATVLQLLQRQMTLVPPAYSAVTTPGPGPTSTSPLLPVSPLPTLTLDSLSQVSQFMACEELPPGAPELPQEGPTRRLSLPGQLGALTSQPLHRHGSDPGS

[5] = Half life in rat liver microsomes
[6] = Faction unbound in human plasma at 1 uM; type: ADME, cell-free
[7] = target: T1, Bombesin receptor subtype-3; assay: Displacement of [125I]-[D-Tyr6,beta-Ala11,Phe13,Nle14]-Bombesin (6-14) from human BRS-3
[8] = Volume of distribution at steady state in rat at 1 mg/kg, iv; type: ADME, organism-based; design: dose 1 mg/kg, route intravenous; settings: in vivo, read-out: Vdss
[9] = Agonist activity at dog BRS-3 expressed in HEK293AEQ cells assessed as induction of intracellular calcium mobilization by aequorin bioluminescence assay relative to dY peptide; settings: Canis lupus familiaris
[10] = Agonist activity at dog BRS-3 expressed in HEK293AEQ cells assessed as induction of intracellular calcium mobilization by aequorin bioluminescence assay; type: functional, cell-based; settings: Canis lupus familiaris
[11] = Volume of distribution at steady state in mouse at 1 mg/kg, iv; type: ADME, organism-based; design: dose 1 mg/kg, route intravenous; settings: in vivo, read-out: Vdss
[12] = Oral bioavailability in dog at 1 mg/kg; type: ADME, organism-based, Canis lupus familiaris; settings: in vivo
Mus musculus [13] = species on record: Mus musculus; assay: Antiobesity activity in BRS3 deficient mouse assessed as reduction of food intake; type: functional, organism-based
[14] = target: T2, Bombesin receptor subtype-3 (Rattus norvegicus, UniProt Q8K418); assay: Agonist activity at rat BRS-3 expressed in HEK293AEQ cells assessed as induction of intracellular calcium mobilization by aequorin bioluminescence assay; type: functional, cell-based
T2 sequence (Q8K418 whole entry): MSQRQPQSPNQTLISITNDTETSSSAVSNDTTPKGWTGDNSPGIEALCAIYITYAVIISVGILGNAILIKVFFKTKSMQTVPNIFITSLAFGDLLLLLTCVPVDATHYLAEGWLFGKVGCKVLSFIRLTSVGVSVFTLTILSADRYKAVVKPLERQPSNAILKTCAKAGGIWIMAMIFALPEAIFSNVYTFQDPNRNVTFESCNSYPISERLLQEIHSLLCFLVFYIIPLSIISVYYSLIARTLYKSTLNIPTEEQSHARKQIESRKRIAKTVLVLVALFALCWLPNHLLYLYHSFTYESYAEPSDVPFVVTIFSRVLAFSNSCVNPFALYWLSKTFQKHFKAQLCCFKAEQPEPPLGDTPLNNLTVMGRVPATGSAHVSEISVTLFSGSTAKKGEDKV

[15] = Half life in rhesus monkey at 0.5 mg/kg, iv; type: ADME, organism-based, Macaca mulatta; design: dose 0.5 mg/kg, route intravenous; settings: in vivo
[16] = target: T2, Bombesin receptor subtype-3; assay: Displacement of [3H]Bag-3 from rat BRS-3
[17] = Half life in mouse at 1 mg/kg, iv; type: ADME, organism-based; design: dose 1 mg/kg, route intravenous; settings: in vivo
[18] = Volume of distribution at steady state in dog at 0.5 mg/kg, iv; type: ADME, organism-based, Canis lupus familiaris; design: dose 0.5 mg/kg, route intravenous; settings: in vivo, read-out: Vdss
Mus musculus [19] = species on record: Mus musculus; assay: Antiobesity activity in wild type mouse assessed as increase of fasting metabolic rate; type: functional, organism-based
Mus musculus [20] = assay: Antiobesity activity in eDIO mouse assessed as reduction of body weight at 25 mg/kg, sc relative to control; type: functional; design: scale not given: the % may be the effect or the level left; settings: route subcutaneous
Mus musculus [21] = assay: Antiobesity activity in eDIO mouse assessed as reduction of body weight at 25 mg/kg, sc after 14 days; type: functional, organism-based; design: dose 25 mg/kg
[22] = Plasma clearance in mouse at 1 mg/kg, iv; type: ADME, organism-based; design: dose 1 mg/kg, route intravenous
[23] = Volume of distribution at steady state in rhesus monkey at 0.5 mg/kg, iv; type: ADME, organism-based, Macaca mulatta; design: dose 0.5 mg/kg, route intravenous; settings: in vivo, read-out: Vdss
Mus musculus [24] = species on record: Mus musculus; assay: Antiobesity activity in BRS3 deficient mouse assessed as increase of fasting metabolic rate; type: functional, organism-based
[25] = Oral bioavailability in rat at 2 mg/kg; type: ADME, organism-based; settings: in vivo
[26] = Agonist activity at rhesus monkey BRS-3 expressed in HEK293AEQ cells assessed as induction of intracellular calcium mobilization by aequorin bioluminescence assay; type: functional, cell-based; settings: Macaca mulatta
[27] = target: T3, Bombesin receptor subtype-3 (Mus musculus, UniProt O54798); assay: Displacement of [3H]Bag-3 from mouse BRS-3
T3 sequence (O54798 whole entry): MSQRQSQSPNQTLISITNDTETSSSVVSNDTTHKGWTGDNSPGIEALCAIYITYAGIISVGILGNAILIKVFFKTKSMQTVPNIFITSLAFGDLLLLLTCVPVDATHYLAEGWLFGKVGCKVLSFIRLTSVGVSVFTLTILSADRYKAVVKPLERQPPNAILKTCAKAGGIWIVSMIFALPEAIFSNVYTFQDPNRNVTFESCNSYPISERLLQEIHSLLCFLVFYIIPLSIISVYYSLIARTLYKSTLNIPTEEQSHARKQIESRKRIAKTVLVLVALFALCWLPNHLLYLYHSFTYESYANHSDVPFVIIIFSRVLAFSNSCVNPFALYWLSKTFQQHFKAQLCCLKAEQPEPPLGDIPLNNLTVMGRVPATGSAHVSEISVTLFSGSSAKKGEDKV

[28] = Binding affinity to dog BRS-3; design: species or system Canis lupus familiaris
Mus musculus [29] = species on record: Mus musculus; assay: Antiobesity activity in wild type mouse assessed as reduction of food intake; type: functional, organism-based
[30] = Plasma clearance in rhesus monkey at 0.5 mg/kg, iv; type: ADME, organism-based, Macaca mulatta; design: dose 0.5 mg/kg, route intravenous
[31] = Oral bioavailability in mouse at 2 mg/kg, po; type: ADME, organism-based; settings: in vivo
[32] = Half life in dog at 0.5 mg/kg, iv; type: ADME, organism-based, Canis lupus familiaris; design: dose 0.5 mg/kg, route intravenous; settings: in vivo
[33] = Binding affinity to rhesus monkey BRS-3; design: species or system Macaca mulatta
[34] = Oral bioavailability in rhesus monkey at 1 mg/kg; type: ADME, organism-based, Macaca mulatta; settings: in vivo
[35] = Agonist activity at rhesus monkey BRS-3 expressed in HEK293AEQ cells assessed as induction of intracellular calcium mobilization by aequorin bioluminescence assay relative to dY peptide; settings: Macaca mulatta
[36] = target: T3, Bombesin receptor subtype-3; assay: Agonist activity at mouse BRS-3 expressed in HEK293AEQ cells assessed as induction of intracellular calcium mobilization by aequorin bioluminescence assay; type: functional, cell-based
[37] = Plasma clearance in dog at 0.5 mg/kg, iv; type: ADME, organism-based, Canis lupus familiaris; design: dose 0.5 mg/kg, route intravenous
[38] = Half life in rat at 1 mg/kg, iv; type: ADME, organism-based; design: dose 1 mg/kg, route intravenous; settings: in vivo
[39] = target: T4, Nuclear receptor subfamily 1 group I member 2 (Homo sapiens, UniProt O75469)
T4 sequence (O75469 whole entry): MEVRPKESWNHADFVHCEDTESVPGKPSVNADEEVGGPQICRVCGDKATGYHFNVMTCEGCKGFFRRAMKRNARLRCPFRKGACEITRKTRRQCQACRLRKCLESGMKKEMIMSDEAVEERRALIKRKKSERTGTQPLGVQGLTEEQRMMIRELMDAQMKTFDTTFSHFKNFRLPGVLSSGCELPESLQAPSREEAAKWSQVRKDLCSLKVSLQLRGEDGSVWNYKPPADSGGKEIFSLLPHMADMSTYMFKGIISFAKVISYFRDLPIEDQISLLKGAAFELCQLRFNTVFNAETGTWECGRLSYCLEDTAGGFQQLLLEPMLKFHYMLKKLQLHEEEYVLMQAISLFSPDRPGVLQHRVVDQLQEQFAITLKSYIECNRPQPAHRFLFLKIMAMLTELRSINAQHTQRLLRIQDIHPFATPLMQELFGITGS

Neuromedin-B receptor = Neuromedin-B receptor (Homo sapiens, UniProt P28336); assay: Inhibition of human NMBR
Neuromedin-B receptor, sequence (P28336 whole entry): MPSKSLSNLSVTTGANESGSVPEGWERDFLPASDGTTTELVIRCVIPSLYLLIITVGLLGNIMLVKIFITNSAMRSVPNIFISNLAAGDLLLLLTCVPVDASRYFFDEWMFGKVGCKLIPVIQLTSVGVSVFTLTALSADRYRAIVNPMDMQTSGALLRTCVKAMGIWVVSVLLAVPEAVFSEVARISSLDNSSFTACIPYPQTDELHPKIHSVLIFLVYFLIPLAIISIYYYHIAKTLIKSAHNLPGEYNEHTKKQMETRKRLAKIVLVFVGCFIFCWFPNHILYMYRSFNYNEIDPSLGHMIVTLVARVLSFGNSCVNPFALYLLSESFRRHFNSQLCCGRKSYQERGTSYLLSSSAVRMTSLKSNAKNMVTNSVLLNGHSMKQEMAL

[40] = Inhibition of human calcium channel diltiazem binding site
[41] = target: Gastrin-releasing peptide receptor (Homo sapiens, UniProt P30550); assay: Inhibition of human GRPR
Gastrin-releasing peptide receptor, sequence (P30550 whole entry): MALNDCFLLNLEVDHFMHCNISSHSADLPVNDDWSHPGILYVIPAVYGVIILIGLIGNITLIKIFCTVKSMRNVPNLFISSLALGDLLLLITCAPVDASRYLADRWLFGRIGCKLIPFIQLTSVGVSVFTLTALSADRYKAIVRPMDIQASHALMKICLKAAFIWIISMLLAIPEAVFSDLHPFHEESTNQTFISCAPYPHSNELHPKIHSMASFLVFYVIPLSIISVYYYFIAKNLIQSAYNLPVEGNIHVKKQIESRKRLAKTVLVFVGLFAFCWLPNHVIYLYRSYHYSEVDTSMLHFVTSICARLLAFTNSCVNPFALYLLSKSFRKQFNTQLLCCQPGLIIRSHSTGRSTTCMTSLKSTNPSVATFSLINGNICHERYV

Compound: CC(C)(C)Cc1c[nH]c(C(C)(O)Cc2ccc(-c3ccc(F)cn3)cc2)n1 (stereo not drawn)
- clearance [1]: 14 mL/min/kg
- fraction unbound at 1 µM [2]: 0.2
- EC50 [3]: 220 nM
- Ki [4]: 5.9 µM
- half-life [5]: 1 min
- fraction unbound at 1 µM [6]: 0.001
- IC50 [7]: 82 nM

Compound: O[C@@](Cc1nc(CC2(C(F)(F)F)CC2)c[nH]1)(c1ccc(-n2cccn2)cc1)C(F)(F)F
- Vd [8]: 0.98 L/kg
- Emax [9]: 100%
- EC50 [10]: 1.6 nM
- Vd [11]: 2.2 L/kg
- bioavailability [12]: 52%
- Activity (Mus musculus [13]): inactive
- EC50 [14]: 2.2 nM
- half-life [15]: 60 min
- IC50 [16]: 1.2 nM
- Ki [16]: 0.6 nM
- half-life [17]: 66 min
- Vd [18]: 0.45 L/kg
- Activity (Mus musculus [19]): Active
- clearance [1]: 20 mL/min/kg
- EC50 [3]: 14 nM
- Activity (Mus musculus [20]): 8%
- Activity (Mus musculus [21]): Active
- Ki [4]: > 8 µM
- clearance [22]: 32 mL/min/kg
- Vd [23]: 0.44 L/kg
- Activity (Mus musculus [24]): inactive
- bioavailability [25]: 64%
- EC50 [26]: 6.9 nM
- IC50 [27]: 5.4 nM
- Ki [27]: 1.6 nM
- IC50 [28]: 6.5 nM
- Ki [28]: 9.9 nM
- Activity (Mus musculus [29]): Active
- clearance [30]: 8.8 mL/min/kg
- bioavailability [31]: 9.6%
- half-life [32]: 84 min
- IC50 [33]: 50 nM
- Ki [33]: 2.4 nM
- bioavailability [34]: 18%
- Emax [35]: 110%
- EC50 [36]: 21 nM
- clearance [37]: 5.6 mL/min/kg
- fraction unbound at 1 µM [6]: 0.01
- IC50 [7]: 27 nM
- Ki [7]: 3.7 nM
- half-life [38]: 42 min

Compound: CC(C)(C)Cc1c[nH]c(CC(C)(O)c2ccc(-c3ccc(F)cn3)cc2)n1 (stereo not drawn)
- EC50 [39]: > 25 µM
- IC50 (Neuromedin-B receptor): > 10 µM
- clearance [1]: 28 mL/min/kg
- fraction unbound at 1 µM [2]: 0.2
- EC50 [3]: 67 nM
- Ki [4]: 4.2 µM
- half-life [5]: 5 min
- IC50 [40]: 1900 nM
- IC50 [41]: > 10 µM
- fraction unbound at 1 µM [6]: 0.004
- IC50 [7]: 17 nM

Compound: CCC(C)(C)Cc1cnc(CCc2ccc(-c3ccc(F)cn3)cc2)[nH]1
- clearance [1]: 12 mL/min/kg
- half-life [5]: 3 min
- IC50 [7]: 16 nM

Compound: CC(C)(C)Cc1c[nH]c(CC(C)(O)c2ccc(-n3cccn3)cc2)n1 (stereo not drawn)
- clearance [1]: 110 mL/min/kg
- EC50 [3]: 16 nM
- fraction unbound at 1 µM [6]: 0.068
- IC50 [7]: 5 nM

Compound: CC(O)(Cc1nc(CC2(C(F)(F)F)CC2)c[nH]1)c1ccc(-n2cccn2)cc1 (stereo not drawn)
- bioavailability [12]: 29%
- clearance [1]: 52 mL/min/kg
- EC50 [3]: 14 nM
- half-life [32]: 18 min
- clearance [37]: 10 mL/min/kg
- fraction unbound at 1 µM [6]: 0.032
- IC50 [7]: 11 nM
